The record followed here is patent publication US20040009899A1, “Treating dominant disorders” (priority 2002, published 2004).

Data set [1] concerns R6/2 mice. In words: Open field test to assess motility. Format: in vivo, mouse. The following applies: for level of motility (open field test): R6/2 mice. On the procedure: Open field test to assess motility: Each mouse was confined for 10 minutes in a Plexiglas locomotion chamber equipped with a laser source and detector. As the mouse passed between the laser source and detector, the laser beam was “broken” and the event was automatically recorded. The number of beam breaks for B6CBA mice treated with the HDs PNA oligomer was compared to that of saline-treated or untreated control B6CBA mice. This number was directly related to general activity of the mice.
Experiments were conducted to determine whether PNA-mediated inhibition of mutant huntingtin expression increased survival and/or reversed features of pathophysiology. R6/2 and non-transgenic mice were divided into two groups of three to five mice each, and treated with either HDs or ACSF for approximately ten weeks, beginning at five to six weeks of age. Treated animals received a dose of 0.15 mg/kg of the HDs PNA oligomer, administered by continuous infusion through an Alzet pump. All ACSF-treated transgenic mice died by three months of age.
In other experiments, R6/2 mice were divided into five groups (designated groups 1-5) containing eight to ten animals each. Groups 1-4 received either saline (group 1) or a specific amount of HDs (groups 2-4). Group 5 included untreated R6/2 mice. A sixth group included untreated non-transgenic B6CBA control mice. At 8 weeks of age, each mouse was weighed to establish a weight stability baseline. Baselines for clasping behavior, motility, and motor skill were established at 9 weeks of age using the methods described in Example 1.
At 9 weeks of age, the mice in each group received saline (group 1) or HDs at 2.0 mg/kg, 5.0 mg/kg, or 20.0 mg/kg (groups 2, 3, and 4, respectively) by i.p. injection every 48 hours. The injections continued through 13 weeks of age (i.e., treatment for […]). Weight stability, clasping behavior, motility, and motor skill were assessed weekly during the treatment period. At the time of death or after the treatment period, the brain of each mouse was removed using standard methods. The brains were divided into hemispheres, and one hemisphere of each brain was saved for protein and mRNA analysis. The remaining hemispheres were fixed directly in 10% formalin for 5-7 days. After fixing, the brain hemispheres were weighed individually and processed for sectioning and pathophysiology.

Data set [2] deals with R6/2 mice. In words: Clasping test. Format: in vivo, mouse. As to conditions: any group (2.0, 5.0 or 20.0 mg/kg i.p. every 48 hours). On the procedure: Clasping test: Dystonic movement was assessed using a procedure adapted from Yamamoto and colleagues (Yamamoto et al., Cell, 101:57-66, 2000). Each animal was suspended by the tail for 15 seconds, and its behavior was videotaped for subsequent analysis. The number and duration of abnormal movements were recorded upon viewing the videotaped behavior. An abnormal movement was defined as any dystonic movement of hindlimbs and/or forelimbs and/or trunk during which the limbs were pulled in toward the body in a manner distinct from that observed in wild-type mice. The duration of dystonic movements was recorded as a percent of total time. Mice were assessed for clasping score and clasping duration. The test period was divided into 2-second increments.
In other experiments, R6/2 mice were divided into five groups (designated groups 1-5) containing eight to ten animals each. Groups 1-4 received either saline (group 1) or a specific amount of HDs (groups 2-4). Group 5 included untreated R6/2 mice. A sixth group included untreated non-transgenic B6CBA control mice. […]
At 9 weeks of age, the mice in each group received saline (group 1) or HDs at 2.0 mg/kg, 5.0 mg/kg, or 20.0 mg/kg (groups 2, 3, and 4, respectively) by i.p. injection every 48 hours. […] Weight stability, clasping behavior, motility, and motor skill were assessed weekly during the treatment period. […]

Data set [3] deals with endogenous mouse Hdh allele. The experiment in a line: Western immunoblot of endogenous mouse htt expression in PNA-treated R6/1 mice. The following applies: any tissue examined (striatum, liver), any tested time point (4 or 6 days). It counts as in vivo. Here is the method: Cannulation and microsurgery—method 1: B6CBA, R6/1, and R6/2 mice were obtained from The Jackson Laboratory (Bar Harbor, Me.). Mice were anesthetized via intraperitoneal (i.p.) injection with 100 mg/kg of a ketamine/xylazine solution containing 8 mg/mL ketamine and 1 mg/mL xylazine in 0.9% saline. Once anesthetized, each mouse was cannulated. Each anesthetized mouse was placed in a Stoelting Stereotaxic Frame with a mouse adapter (Stoelting Instruments, Wood Dale, Ill.). An incision was made using a scalpel, and the skin and tissue were pulled back with swabs to reveal the skull. The cannulation site was positioned for optimum access to the ventricle, at coordinates AP −0.2 mm, Horiz −1 mm from bregma. A cannula entry port and two bone screw ports were opened in the skull using a Dremel Flex Shaft Drill (Stoelting Instruments) with a 2.1 mm burr for the guide cannula port and a 0.7 mm burr for the bone screws (Fine Science Tools, Foster City, Calif.). Two 4.0 mm long bone screws (0.85 diameter) were placed far enough into the bone screw ports to fasten securely. […]
Following the treatment period, mice were anesthetized with ether and sacrificed by cervical dislocation. […] Following centrifugation, the supernatants were removed and protein concentrations were quantified by Bradford assays using a BSA standard. […]

In the case of “HDs: sense PNA oligomer, 14 residues, 5′-GGACTGCCGTGCCG-3′ (SEQ ID NO:3), specific for the expanded human HD allele (all peptide nucleic acid (PNA))”, the “level of motility (open field test)” value with R6/2 mice [1] (2.0 mg/kg i.p. every 48 hours, compared to untreated R6/2 mice) is “no difference in motility”; with R6/2 mice [1] (5.0 mg/kg i.p. every 48 hours, lower than nontransgenic controls), “increased as compared to untreated R6/2 mice”; with R6/2 mice [1] (20.0 mg/kg i.p. every 48 hours, lower than nontransgenic controls) it was “increased as compared to untreated R6/2 mice”. In the data set with R6/2 mice [1] (surviving R6/2 mice, 0.15 mg/kg continuous infusion by Alzet pump), the “motility as compared to non-transgenic animals” value was “decline in motility”. For the same substance, the “clasping behavior over the treatment period” value with R6/2 mice [2] is on record as “No significant alterations in clasping behavior”. The “effect on expression of the endogenous mouse Hdh allele” value in data set [3] is given as “Neither HDs nor HDscr had any effect”.
